Reference: publication PMC3883289, “DER containing two consecutive GTP-binding domains plays an essential role in chloroplast ribosomal RNA processing and ribosome biogenesis in higher plants” (Journal of Experimental Botany, 2013)

Biological target: T1, NbDER (MBP:NbDER) (Nicotiana benthamiana, UniProt R4N342, S369A)
T1 construct: gene YphC; without N-terminal chloroplast transit peptide (Met-1 to Ser-60); N-terminal MBP tag kept; E. coli; precursor 651 residues; GD1, GD2 and CTD present; fusion proteins approximately 60-107 kDa
T1 sequence (R4N342 entry or part of it S369A): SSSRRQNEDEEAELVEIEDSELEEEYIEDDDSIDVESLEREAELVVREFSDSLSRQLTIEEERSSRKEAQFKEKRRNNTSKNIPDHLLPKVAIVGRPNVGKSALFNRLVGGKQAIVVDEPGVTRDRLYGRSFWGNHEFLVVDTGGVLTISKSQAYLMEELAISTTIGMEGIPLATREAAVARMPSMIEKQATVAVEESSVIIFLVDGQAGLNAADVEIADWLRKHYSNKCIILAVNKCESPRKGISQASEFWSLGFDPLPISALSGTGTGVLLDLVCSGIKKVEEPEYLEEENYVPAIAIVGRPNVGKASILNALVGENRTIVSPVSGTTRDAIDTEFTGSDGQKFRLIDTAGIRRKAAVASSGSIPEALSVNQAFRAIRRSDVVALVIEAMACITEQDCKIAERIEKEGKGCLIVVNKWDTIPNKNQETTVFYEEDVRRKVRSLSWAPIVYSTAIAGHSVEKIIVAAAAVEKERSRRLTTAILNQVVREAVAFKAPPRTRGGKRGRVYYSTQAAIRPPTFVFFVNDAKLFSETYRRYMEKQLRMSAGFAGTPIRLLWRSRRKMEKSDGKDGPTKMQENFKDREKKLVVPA
Test: phosphate release, Biomol green
Assay type: biochemical
Details: 1 mM GTP, 3 uM protein, HEPES pH 8, 1 mM Mg (printed MgCl4), room temperature, 18 h

`Nc1nc2c(ncn2[C@@H]2O[C@H](COP(=O)(O)OP(=O)(O)OP(=O)(O)O)[C@@H](O)[C@H]2O)c(=O)[nH]1` [GTP] was tested, and the “phosphate release, Biomol green” value was “S162A or S369A mutation in NbDER (PM1 or PM2) reduced the k cat values”.
